Measured values reported in a melting point compilation (Tetko et al.; mined from patent text by program, amines drawn as free bases though some values may be those of a salt).

Row | SMILES | melting point [°C]
1 | CCN1CCCC1Cc1cccc(NC(N)=O)c1 (centres undefined) | 114 to 116
2 | COc1cc(OC)cc(C(=CC#N)c2ccc(OC)c(N)c2)c1 | 93 to 95
3 | Nc1nc(N)c(N=O)c(OCC2CCCCC2)n1 | 254
4 | COc1cc(OC)c2c(=O)cc(-c3cccc(C)c3)oc2c1C1=CCN(C)CC1 | 109 to 110
5 | CCc1cc2[nH]c(=O)c(=O)[nH]c2c([N+](=O)[O-])c1Cl | > 330
6 | O=C(C=Cc1ccc(COC2OC(CO)C(O)C(O)C2O)o1)c1ccccc1 (centres undefined) | 127
7 | CC(C)C[C@H](NC(=O)Nc1cccc2ccccc12)C(=O)NC1CCOC1O (some centres undefined) | 177 to 178
8 | Cc1[nH]c(=S)[nH]c1C(N)=O | < 300
9 | COc1ccc(OC)c2c1CC(O)(C(=O)O)CC21SCCS1 (centres undefined) | 178 to 180
10 | COC(=O)C1CCSc2cc(OC)c(OC)cc2C1=O (centres undefined) | 132 to 133
11 | NS(=O)(=O)c1cc(C=O)cs1 | 146 to 149
12 | Cc1ccc(S(=O)(=O)N=c2[nH]c3ccccc3s2)cc1 | 246 to 249
13 | CCOC(=O)c1ccc(-c2[nH]nc3c2C(=O)c2c(NC(=O)NN4CCN(C)CC4)cccc2-3)s1 | 249
14 | COc1cc(N)ccc1-c1ccc(-c2ccc(N)cc2OC)o1 | 201 to 202
15 | COc1cc(NC(=S)NC(=O)c2ccccc2)cc(-c2ccccc2)c1 | 149
16 | COc1cc(C(C)C)ccc1C1COc2c(C)c(C)c(N)c(C)c21 (centres undefined) | 120 to 121
17 | CC1Cc2ccc(Cl)cc2C(c2ccc([N+](=O)[O-])cc2)=NN1C(N)=O (centres undefined) | 223 to 234
18 | CC(C)(C)OC(=O)N1Cc2cscc2C1 | 36 to 38
19 | CC(=O)NC(C)(C(=O)O)C(C)C (centres undefined) | 189 to 190

Next, values leading:

Row | melting point [°C] | SMILES
20 | 270 to 272 | CN(C)c1ccc(-c2cc3ncc(C#N)c(Cl)c3s2)cc1
21 | 173 to 174 | CCN1CCN(c2cccc3ccc(NC(=O)c4ccc(Cl)cc4)cc23)CC1
22 | 129 to 130 | CCCCc1ccc(C2(C)OC(=C(C#N)C#N)C(C#N)=C2C)cc1 (centres undefined)
23 | 168 to 182 | CCc1nc(N)nc(N)c1CCCc1cc(Cl)c(Cl)cc1Cl
24 | 144 to 146 | N#Cc1ccc2nc(CCl)[nH]c2c1
25 | 182 | Cn1c(=O)cc(-c2cccc(Cl)c2)c2cc(Br)ccc21
26 | 197 to 199 | Cn1nc(OC2c3cc(C#N)ccc3OC(C)(C)C2(C)O)ccc1=O (centres undefined)
27 | 96 to 97 | Cc1ccc(N2CCN(CCC3CN(C)C(=O)O3)CC2)cc1C (centres undefined)
28 | 158 to 159 | Cc1ccc(N2CCC3CCc4cnccc4C3=N2)cc1 (centres undefined)
29 | 54 to 55.5 | O=C(O)CCCCCNC(=O)OCc1ccccc1
30 | 129 to 130 | CCCN(c1ncncc1C#N)n1ccc2ccccc21
31 | 82 to 85 | CC(C)c1c(Br)ccc(N)c1C#N
32 | 53 to 55.5 | COC(=O)c1ccc(OCCN)cc1
33 | 182 to 183 | COc1c(-c2cc3c(s2)C(O)CC(C)(C)C3)ccc2c(=O)c(C(=O)O)cn(C3CC3)c12 (centres undefined)
34 | 163 to 165 | O=C(O)CC1c2ccccc2CCc2ccccc21
35 | 166 to 168 | NCCNc1cccc2cn[nH]c12
36 | 158 to 159 | CCCCn1cc(C2CCN(CCOc3ccccc3C(=O)O)CC2)c2ccncc21
37 | 70 to 71 | Cc1sc(-c2ccccc2)nc1COc1ccc(CO)cn1
38 | 151 to 152 | CCO/N=C1\CCc2ccccc2C1=Cc1ccc(S(C)(=O)=O)cc1
39 | 148 to 151 | CN1C(=O)N(c2c(Cl)cccc2Cl)Cc2cnc(NCCc3ccccc3)nc21
40 | 42 to 45 | CCCOc1nc2ccsc2c(=O)n1CCC
41 | 125 to 130 | CCCCC1=Nc2ccccc2SN1Cc1ccc(-c2ccccc2C(=O)O)cc1
42 | 148 to 149 | CC(C)Nc1ncc2ccc(=O)n(C)c2n1
43 | 238 | CCCOc1ccc(F)cc1C1=NC(=O)C2=NC=NC2=N1
44 | 62 to 63 | CCC(CC)c1nn(-c2ccc(Cl)cn2)cc1CCCO
